# Assay results reported in patent US9980927B2, “Use of tapentadol for inhibiting and/or treating depression and anxiety” (Gruenenthal GmbH, priority 2011, dated 2018).
# Tested on: patients with inadequately managed, severe chronic low back pain with or without a neuropathic pain component
# Assay: Hospital Anxiety and Depression Scale (HADS) depression score; open-label phase IIIb trial, tapentadol prolonged release 50-250 mg bid for up to 12 weeks
# Format: in vivo, human patients
# Description: As used herein, the “depression score” is a value determining the degree of the depression. The scale of depression scores covers the range from 0 to 21, wherein the degree of the depression is high in case of high values and low in case of low values. In a group of tested subjects, typically the mean or mediate values of depression scores are determined. The mean value is the sum of all depression scores divided by the number of subjects. The mediate value is the middle depression score in the set of determined scores. Preferably, the “depression score” is defined as in the experimental section.
# A subgroup suffering from neuropathic pain due to lumbar radiculopathy was also investigated.
# This was a multicenter, multinational, open-label, effectiveness phase IIIb trial to evaluate effectiveness and safety of tapentadol prolonged release treatment in patients with inadequately managed, severe chronic low back pain with or without a neuropathic pain component. Patients taking WHO Step II analgesics discontinued those analgesics before starting study medication; patients taking Step I analgesics and/or centrally acting co-analgesics continued on the same dose. […] All patients received tapentadol prolonged release (50-250 mg bid) for up to 12 weeks (5-week titration period and a 7-week maintenance period). Tapentadol immediate release (IR) 50 mg (twice a day, hours apart) was permitted (combined total daily dose of tapentadol prolonged release and tapentadol IR, 500 mg/day). The primary efficacy endpoint was the change from Baseline to Week 6 (when tapentadol prolonged release doses were stable) in average pain intensity on the 11-point NRS-3 using the last observation carried forward (LOCF) for imputing missing scores. The painDETECT questionnaire was used to evaluate the likelihood of a neuropathic pain component of low back pain; patients were classified as painDETECT “negative,” “unclear,” or “positive.” The population of patients classified as painDETECT negative was limited to approximately 30% of the total population.
# In the painDETECT positive trial population the “diagnosis of lumbar radiculopathy” was evaluated which was defined per study protocol according following criteria: • typical dermatomal pain (radiating beyond the knee towards the foot, pain evoked by stretching within distribution of the ischiadic/femoral nerve) • signs of root dysfunction: • such as sensory impairment, motor symptoms from compression of lumbar nerve root (L4, L5, S1). • and/or absent or diminished quadriceps femoris or triceps surae reflexes. • and/or quantitative sensory testing (QST) deficit and pain distribution present in the same dermatomal area.
# All subjects completed Short Form-36 (SF-36) and EuroQol-5 Dimension (EQ-5D) questionnaires and the Hospital Anxiety and Depression Scale (HADS). The Patient Global Impression of Change (PGIC) and Clinical global impression of change (CGIC) were also used as secondary endpoints. For both tests, patients completed the statement, “since I began trial treatment, I would rate my overall condition as,” using 7 possible responses (“very much worse” to “very much improved”). Adverse events were recorded throughout the trial.
# In the following • (i) N is the number of subjects of the specified diagnosis group, • (ii) n is the number of subjects with data available, • (iii) “Mean” is the mean score of the subjects, i.e. the sum of all scores is divided by the number of subjects, • (iv) SD is the standard deviation, • (v) “Median” is the median score of the subjects, i.e. the middle score in the set of scores, • (vi) “Range” is the range of scores of the subjects, i.e. the range defined by the lowest and the highest score of the set of scores. First, the depression scores are presented. The total number of subjects in the clinical study: N=175
# [1] = Visit 8, presumed neuropathic pain component N=41
# [2] = Visit 8, presumed or defined neuropathic
# [3] = Visit 8, presumed or defined neuropathic pain component N=126
# [4] = Visit 8, subjects with nociceptive pain N=49
# [5] = Visit 9, defined neuropathic pain N=85
# [6] = Visit 9, positive diagnosis of lumbar radiculopathy-neuropathic pain subset N=44
# [7] = Visit 9, presumed neuropathic pain component N=41
# [8] = Visit 9, presumed or defined neuropathic pain component N=126
# [9] = Visit 9, subjects with nociceptive pain N=49
# [10] = Visit 10, defined neuropathic pain N=85
# [11] = Visit 10, positive diagnosis of lumbar radiculopathy-neuropathic pain subset N=44
# [12] = Visit 10, presumed neuropathic pain component N=41
# [13] = Visit 10, presumed or defined neuropathic pain component N=126
# [14] = Visit 10, subjects with nociceptive pain N=49
# [15] = Visit 11, defined neuropathic pain N=85
# [16] = Visit 11, positive diagnosis of lumbar radiculopathy-neuropathic pain subset N=44
# [17] = Visit 11, presumed neuropathic pain component N=41
# [18] = Visit 11, presumed or defined neuropathic pain component N=126
# [19] = Visit 11, subjects with nociceptive pain N=49
# [20] = Visit 12, defined neuropathic pain N=85
# [21] = Visit 12, positive diagnosis of lumbar radiculopathy-neuropathic pain subset N=44
# [22] = Visit 12, presumed neuropathic pain component N=41
# [23] = Visit 12, presumed or defined neuropathic
# [24] = Visit 12, presumed or defined neuropathic pain component N=126
# [25] = Visit 12, subjects with nociceptive pain N=49
structure (smiles),measurement,setting,value
"CC[C@@H](c1cccc(O)c1)[C@@H](C)CN(C)C [tapentadol, (−)-(1R,2R)-3-(3-dimethylamino-1-ethyl-2-methyl-propyl)-phenol]",Depression score Median,"Visit 8, positive diagnosis of lumbar radiculopathy-neuropathic pain subset N=44",6.0
same,Depression score Mean (SD),[1],6.4 (4.24)
same,Depression score Median,[1],6.0
same,Depression score change from baseline Mean (SD),[2],−1.9 (3.30)
same,Depression score change from baseline Median,[2],−1.0
same,Depression score Mean (SD),[3],6.4 (4.24)
same,Depression score Median,[3],6.0
same,Depression score Mean (SD),[4],5.5 (3.90)
same,Depression score Median,[4],4.5
same,Depression score change from baseline Mean (SD),"Visit 8, total",−1.6 (3.09)
same,Depression score change from baseline Median,"Visit 8, total",−1.0
same,Depression score Mean (SD),"Visit 8, total subjects N=175",6.2 (4.16)
same,Depression score Median,"Visit 8, total subjects N=175",6.0
same,Depression score Mean (SD),[5],6.5 (5.06)
same,Depression score Median,[5],6.0
same,Depression score Mean (SD),[6],6.2 (4.63)
same,Depression score Median,[6],7.5
same,Depression score Mean (SD),[7],6.4 (4.32)
same,Depression score Median,[7],6.0
same,Depression score Mean (SD),[8],6.5 (4.81)
same,Depression score Median,[8],6.0
same,Depression score Mean (SD),[9],5.4 (3.49)
same,Depression score Median,[9],5.0
same,Depression score Mean (SD),"Visit 9, total subjects N=175",6.1 (4.48)
same,Depression score Median,"Visit 9, total subjects N=175",6.0
same,Depression score Mean (SD),[10],6.5 (5.04)
same,Depression score Median,[10],6.0
same,Depression score Mean (SD),[11],6.2 (4.50)
same,Depression score Median,[11],7.0
same,Depression score Mean (SD),[12],6.4 (5.34)
same,Depression score Median,[12],5.0
same,Depression score Mean (SD),[13],6.5 (5.09)
same,Depression score Median,[13],6.0
same,Depression score Mean (SD),[14],5.5 (3.34)
same,Depression score Median,[14],5.5
same,Depression score Mean (SD),"Visit 10, total subjects N=175",6.2 (4.66)
same,Depression score Median,"Visit 10, total subjects N=175",6.0
same,Depression score Mean (SD),[15],5.9 (4.70)
same,Depression score Median,[15],5.5
same,Depression score Mean (SD),[16],6.0 (4.69)
same,Depression score Median,[16],6.5
same,Depression score Mean (SD),[17],6.4 (5.11)
same,Depression score Median,[17],5.0
same,Depression score Mean (SD),[18],6.0 (4.80)
same,Depression score Median,[18],5.0
same,Depression score Mean (SD),[19],5.6 (4.04)
same,Depression score Median,[19],5.0
same,Depression score Mean (SD),"Visit 11, total subjects N=175",5.9 (4.59)
same,Depression score Median,"Visit 11, total subjects N=175",5.0
same,Depression score change from baseline Mean (SD),Visit 12,−1.5 (3.30)
same,Depression score change from baseline Median,Visit 12,−2.0
same,Depression score change from baseline Mean (SD),"Visit 12, defined neuropathic",−2.2 (3.31)
same,Depression score change from baseline Median,"Visit 12, defined neuropathic",−2.0
same,Depression score Mean (SD),[20],5.8 (4.76)
same,Depression score Median,[20],5.0
same,Depression score change from baseline Mean (SD),"Visit 12, lumbar radiculopathy",−2.1 (3.30)
same,Depression score change from baseline Median,"Visit 12, lumbar radiculopathy",−1.0
same,Depression score change from baseline Mean (SD),"Visit 12, nociceptive",−0.5 (2.86)
same,Depression score change from baseline Median,"Visit 12, nociceptive",0.0
same,Depression score Mean (SD),[21],5.3 (4.09)
same,Depression score Median,[21],5.0
same,Depression score Mean (SD),[22],6.2 (4.66)
same,Depression score Median,[22],5.0
same,Depression score change from baseline Mean (SD),[23],−2.0 (3.30)
same,Depression score change from baseline Median,[23],−2.0
same,Depression score Mean (SD),[24],5.9 (4.70)
same,Depression score Median,[24],5.0
same,Depression score Mean (SD),[25],4.9 (3.13)
same,Depression score Median,[25],4.0
same,Depression score change from baseline Mean (SD),"Visit 12, total",−1.6 (3.24)
same,Depression score change from baseline Median,"Visit 12, total",−2.0
same,Depression score Mean (SD),"Visit 12, total subjects N=175",5.7 (4.35)
same,Depression score Median,"Visit 12, total subjects N=175",5.0
same,efficacy against depression,conclusion from the clinical data,significant efficacy
same,depression (measured with HADS),patient sub-population with low back pain with a neuropathic component,significant improvement
